Experimental data as given in US11945822B2, “Pyrazolo-triazine and/or pyrazolo-pxrimidine derivatives as selective inhibitor of cyclin dependent kinase” (QURIENT CO., LTD., priority 2018, dated 2024).

Each molecule was assayed against T1, CDK5/p25 (Homo sapiens, UniProt Q00535) (assay: Enzymatic assay for CDK5 (FRET based LANCE Ultra kinase assay)). Settings: read-out: CDK5 enzymatic activity (IC50 range).
T1 construct: purchased Invitrogen PR8543B
Assay type: biochemical
Summary of the method: (§1)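 Each CDK complex ([…]) phosphorylated 68 nM ULight-MBP peptide with ATP at Km for 60 min at 23° C., against 8 compound doses (4-fold dilutions). EDTA/Eu-anti-phospho-MBP detection, 60 min, then TR-FRET emission at 615 and 665 nm.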

T1 sequence (Q00535 whole entry): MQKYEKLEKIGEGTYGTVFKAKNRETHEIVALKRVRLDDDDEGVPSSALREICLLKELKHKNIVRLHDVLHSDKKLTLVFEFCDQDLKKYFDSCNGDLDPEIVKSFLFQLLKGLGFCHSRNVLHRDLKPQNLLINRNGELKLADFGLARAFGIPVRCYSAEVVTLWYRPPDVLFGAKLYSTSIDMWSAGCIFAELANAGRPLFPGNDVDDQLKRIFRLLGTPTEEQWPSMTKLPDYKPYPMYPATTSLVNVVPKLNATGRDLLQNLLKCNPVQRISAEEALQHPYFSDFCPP
T1 sequence (Q15078 99-307 partner limits assumed): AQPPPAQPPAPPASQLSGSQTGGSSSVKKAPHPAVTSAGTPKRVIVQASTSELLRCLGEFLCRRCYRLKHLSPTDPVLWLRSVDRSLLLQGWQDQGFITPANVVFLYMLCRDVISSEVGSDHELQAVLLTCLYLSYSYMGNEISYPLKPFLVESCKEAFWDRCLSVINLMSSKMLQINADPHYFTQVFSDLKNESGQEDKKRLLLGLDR

IC50 [nM]	Compound
100 to 1000	CC(C)c1cnn2c(NCc3cccc(-c4cc5ccccc5[nH]4)c3)nc(N3CCC(N)CC3)nc12 [Compound 118]
100 to 1000	CC(C)c1cnn2c(NCc3ccccc3-c3cc4cc([N+](=O)[O-])ccc4[nH]3)nc(N3CCC(N)CC3)nc12 [Compound 121]
100 to 1000	CC(C)c1cnn2c(NCc3ccccc3-n3cc4cccc(NC(=O)CCCN(C)C)c4n3)nc(N3CCC(N)CC3)nc12 [Compound 126]
100 to 1000	CC(=O)c1ccc2nn(-c3ccccc3CNc3nc(N4CCC(N)CC4)nc4c(C(C)C)cnn34)cc2c1 [Compound 127]

The molecules below were run on RPMI-8226 (assay: Cellular RPMI-8226 viability assay (CellTiter-Glo, 72 hours)). Settings: Homo sapiens.
Assay type: cell-based
Experimental: All cell lines were routinely tested for mycoplasma.
The effect of the CDK7 inhibitor to inhibit the growth of target cancer cells was evaluated through the 72 hours time period of viability assay. Briefly, the candidate cell line ware plated in 96 well plate at the following density of cells respectively. […] DMSO solvent without compound served as a control and final DMSO concentration less than 0.1%. After 72 hours of incubation at 37° C., 5% CO2 incubator, cells were analyzed for the viability using the CellTiter-Glo Luminescent Cell Viability Assay (Promega, Cat #G7570). All viability assays were performed in duplicate and Luminescence was read using an Envision (Perkin Elmer, USA). Data was analyzed using XLfit software.

IC50 [nM]	Compound
< 1000	CC(C)c1cnn2c(NCc3cccc(-c4cc5ccccc5[nH]4)c3)nc(N3CCC(N)CC3)nc12 [Compound 118]
< 1000	CC(C)c1cnn2c(NCc3ccccc3-c3cc4cc([N+](=O)[O-])ccc4[nH]3)nc(N3CCC(N)CC3)nc12 [Compound 121]
< 1000	CC(C)c1cnn2c(NCc3ccccc3-n3cc4cccc(NC(=O)CCCN(C)C)c4n3)nc(N3CCC(N)CC3)nc12 [Compound 126]
< 1000	CC(=O)c1ccc2nn(-c3ccccc3CNc3nc(N4CCC(N)CC4)nc4c(C(C)C)cnn34)cc2c1 [Compound 127]

Each molecule was assayed on H460 (assay: Cellular H460 viability assay (CellTiter-Glo, 72 hours)). Settings: Homo sapiens, NCI-H460.
Assay type: cell-based
Summary of the method: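 Steps: seed cells at per-line density; add compound, DMSO vehicle kept under 0.1% final; incubate 72 h, 37 °C, 5% CO2; lyse with CellTiter-Glo and read luminescence; run in duplicate.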

IC50 [nM]	Compound
< 1000	CC(C)c1cnn2c(NCc3cccc(-c4cc5ccccc5[nH]4)c3)nc(N3CCC(N)CC3)nc12 [Compound 118]
< 1000	CC(C)c1cnn2c(NCc3ccccc3-c3cc4cc([N+](=O)[O-])ccc4[nH]3)nc(N3CCC(N)CC3)nc12 [Compound 121]
< 1000	CC(C)c1cnn2c(NCc3ccccc3-n3cc4cccc(NC(=O)CCCN(C)C)c4n3)nc(N3CCC(N)CC3)nc12 [Compound 126]
< 1000	CC(=O)c1ccc2nn(-c3ccccc3CNc3nc(N4CCC(N)CC4)nc4c(C(C)C)cnn34)cc2c1 [Compound 127]

These molecules were tested against T2, CDK1/Cyclin B (Homo sapiens, UniProt P06493) (assay: Enzymatic assay for CDK1 (FRET based LANCE Ultra kinase assay)). Settings: read-out: CDK1 enzymatic activity (IC50 range).
T2 construct: purchased Invitrogen PR4768C
T2 sequence (P06493 whole entry): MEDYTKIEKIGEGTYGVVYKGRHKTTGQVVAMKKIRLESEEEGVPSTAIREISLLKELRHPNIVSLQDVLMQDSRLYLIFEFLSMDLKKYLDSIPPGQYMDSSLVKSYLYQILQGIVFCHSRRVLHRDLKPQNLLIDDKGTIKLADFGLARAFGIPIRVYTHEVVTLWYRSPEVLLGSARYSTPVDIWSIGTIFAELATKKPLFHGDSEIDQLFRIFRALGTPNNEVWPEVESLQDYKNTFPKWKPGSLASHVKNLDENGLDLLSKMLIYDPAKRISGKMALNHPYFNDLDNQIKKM
T2 sequence (P14635 whole entry partner): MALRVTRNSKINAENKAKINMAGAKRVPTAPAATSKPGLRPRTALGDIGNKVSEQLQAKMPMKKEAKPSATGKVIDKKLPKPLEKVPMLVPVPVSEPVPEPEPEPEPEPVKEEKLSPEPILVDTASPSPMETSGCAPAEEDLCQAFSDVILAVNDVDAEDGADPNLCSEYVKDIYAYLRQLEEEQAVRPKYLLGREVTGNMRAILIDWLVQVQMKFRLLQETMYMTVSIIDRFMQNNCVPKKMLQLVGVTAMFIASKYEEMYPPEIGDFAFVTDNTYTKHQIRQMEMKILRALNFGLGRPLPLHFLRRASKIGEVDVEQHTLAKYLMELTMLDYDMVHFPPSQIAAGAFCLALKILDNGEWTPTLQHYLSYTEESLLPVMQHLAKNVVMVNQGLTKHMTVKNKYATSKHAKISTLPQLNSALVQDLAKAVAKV
Assay type: biochemical
Summary of the method: as §1

IC50 [nM]	Compound
> 1000	CC(C)c1cnn2c(NCc3cccc(-c4cc5ccccc5[nH]4)c3)nc(N3CCC(N)CC3)nc12 [Compound 118]
> 1000	CC(C)c1cnn2c(NCc3ccccc3-c3cc4cc([N+](=O)[O-])ccc4[nH]3)nc(N3CCC(N)CC3)nc12 [Compound 121]
> 1000	CC(C)c1cnn2c(NCc3ccccc3-n3cc4cccc(NC(=O)CCCN(C)C)c4n3)nc(N3CCC(N)CC3)nc12 [Compound 126]
> 1000	CC(=O)c1ccc2nn(-c3ccccc3CNc3nc(N4CCC(N)CC4)nc4c(C(C)C)cnn34)cc2c1 [Compound 127]

Each molecule was assayed against T3, CDK7/Cyclin H/MNAT1 (Homo sapiens, UniProt P50613) (assay: Enzymatic assay for CDK7 (FRET based LANCE Ultra kinase assay)). Settings: CDK7 over CDK1.
T3 construct: purchased Invitrogen PR6749B
T3 sequence (P50613 whole entry): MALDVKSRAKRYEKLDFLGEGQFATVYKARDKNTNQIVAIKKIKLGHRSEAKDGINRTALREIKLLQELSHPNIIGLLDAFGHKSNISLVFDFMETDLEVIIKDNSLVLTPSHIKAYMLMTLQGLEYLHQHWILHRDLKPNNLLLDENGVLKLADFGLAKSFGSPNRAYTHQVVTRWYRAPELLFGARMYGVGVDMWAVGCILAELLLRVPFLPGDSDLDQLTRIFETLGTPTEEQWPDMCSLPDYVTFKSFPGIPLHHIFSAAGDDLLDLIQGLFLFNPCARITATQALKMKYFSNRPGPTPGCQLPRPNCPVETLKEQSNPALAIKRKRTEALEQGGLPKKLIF
T3 sequence (P51946 whole entry partner): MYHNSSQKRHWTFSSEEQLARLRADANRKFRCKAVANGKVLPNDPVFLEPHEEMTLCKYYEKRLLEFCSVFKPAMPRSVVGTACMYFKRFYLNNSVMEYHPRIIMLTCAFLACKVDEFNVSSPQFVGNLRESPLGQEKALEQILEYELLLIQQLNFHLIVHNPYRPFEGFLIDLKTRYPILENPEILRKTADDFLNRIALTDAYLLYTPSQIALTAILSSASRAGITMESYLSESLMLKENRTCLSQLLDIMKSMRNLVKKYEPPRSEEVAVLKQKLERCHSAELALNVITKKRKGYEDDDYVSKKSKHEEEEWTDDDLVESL
T3 sequence (P51948 whole entry partner): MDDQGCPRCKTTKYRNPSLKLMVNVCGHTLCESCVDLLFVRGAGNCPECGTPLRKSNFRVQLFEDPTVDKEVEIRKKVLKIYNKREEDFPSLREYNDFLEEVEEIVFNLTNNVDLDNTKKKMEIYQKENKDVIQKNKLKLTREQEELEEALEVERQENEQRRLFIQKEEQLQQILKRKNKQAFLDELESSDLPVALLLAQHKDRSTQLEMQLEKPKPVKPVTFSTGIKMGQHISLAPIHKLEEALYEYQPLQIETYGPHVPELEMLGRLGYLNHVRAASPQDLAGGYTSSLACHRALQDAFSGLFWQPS
Assay type: biochemical
Summary of the method: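 LANCE Ultra TR-FRET kinase assay using a ULight-labeled peptide substrate and a Eu-labeled anti-phospho antibody, with ATP at its Km. Purified CDK/cyclin complex was added to compound after brief centrifugation.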

CDK1/CDK7: Selectivity of CDK7 inhibition over CDK1 inhibition	Compound
A (A=greater than 200 fold)	CC(C)c1cnn2c(NCc3ccccc3-c3cc4cc([N+](=O)[O-])ccc4[nH]3)nc(N3CCC(N)CC3)nc12 [Compound 121]
A (A=greater than 200 fold)	CC(C)c1cnn2c(NCc3ccccc3-n3cc4cccc(NC(=O)CCCN(C)C)c4n3)nc(N3CCC(N)CC3)nc12 [Compound 126]
A (A=greater than 200 fold)	CC(=O)c1ccc2nn(-c3ccccc3CNc3nc(N4CCC(N)CC4)nc4c(C(C)C)cnn34)cc2c1 [Compound 127]

Compound	CDK1/CDK7: Selectivity of CDK7 inhibition over CDK1 inhibition
CC(C)c1cnn2c(NCc3cccc(-c4cc5ccccc5[nH]4)c3)nc(N3CCC(N)CC3)nc12 [Compound 118]	B (B=less than 200 fold, but greater than 20 fold)

Same assay, conditions: CDK7 over CDK2

Compound	CDK2/CDK7: Selectivity of CDK7 inhibition over CDK2 inhibition
CC(C)c1cnn2c(NCc3cccc(-c4cc5ccccc5[nH]4)c3)nc(N3CCC(N)CC3)nc12 [Compound 118]	B (B=less than 200 fold, but greater than 20 fold)
CC(C)c1cnn2c(NCc3ccccc3-c3cc4cc([N+](=O)[O-])ccc4[nH]3)nc(N3CCC(N)CC3)nc12 [Compound 121]	B (B=less than 200 fold, but greater than 20 fold)
CC(C)c1cnn2c(NCc3ccccc3-n3cc4cccc(NC(=O)CCCN(C)C)c4n3)nc(N3CCC(N)CC3)nc12 [Compound 126]	B (B=less than 200 fold, but greater than 20 fold)
CC(=O)c1ccc2nn(-c3ccccc3CNc3nc(N4CCC(N)CC4)nc4c(C(C)C)cnn34)cc2c1 [Compound 127]	B (B=less than 200 fold, but greater than 20 fold)

Same assay, conditions: CDK7 over CDK5

Compound	CDK5/CDK7: Selectivity of CDK7 inhibition over CDK5 inhibition
CC(C)c1cnn2c(NCc3cccc(-c4cc5ccccc5[nH]4)c3)nc(N3CCC(N)CC3)nc12 [Compound 118]	B (B=less than 200 fold, but greater than 20 fold)
CC(C)c1cnn2c(NCc3ccccc3-c3cc4cc([N+](=O)[O-])ccc4[nH]3)nc(N3CCC(N)CC3)nc12 [Compound 121]	B (B=less than 200 fold, but greater than 20 fold)
CC(C)c1cnn2c(NCc3ccccc3-n3cc4cccc(NC(=O)CCCN(C)C)c4n3)nc(N3CCC(N)CC3)nc12 [Compound 126]	B (B=less than 200 fold, but greater than 20 fold)
CC(=O)c1ccc2nn(-c3ccccc3CNc3nc(N4CCC(N)CC4)nc4c(C(C)C)cnn34)cc2c1 [Compound 127]	B (B=less than 200 fold, but greater than 20 fold)

Same assay, conditions: read-out: CDK7 enzymatic activity (IC50 range)

IC50 [nM]	Compound
< 100	CC(C)c1cnn2c(NCc3cccc(-c4cc5ccccc5[nH]4)c3)nc(N3CCC(N)CC3)nc12 [Compound 118]
< 100	CC(C)c1cnn2c(NCc3ccccc3-c3cc4cc([N+](=O)[O-])ccc4[nH]3)nc(N3CCC(N)CC3)nc12 [Compound 121]
< 100	CC(C)c1cnn2c(NCc3ccccc3-n3cc4cccc(NC(=O)CCCN(C)C)c4n3)nc(N3CCC(N)CC3)nc12 [Compound 126]
< 100	CC(=O)c1ccc2nn(-c3ccccc3CNc3nc(N4CCC(N)CC4)nc4c(C(C)C)cnn34)cc2c1 [Compound 127]

These molecules were tested against T4, CDK2/Cyclin A (Homo sapiens, UniProt P24941) (assay: Enzymatic assay for CDK2 (FRET based LANCE Ultra kinase assay)). Settings: read-out: CDK2 enzymatic activity (IC50 range).
T4 construct: purchased Invitrogen PV6290
Assay type: biochemical
Summary of the method: as §1

IC50 [nM]	Compound
100 to 1000	CC(C)c1cnn2c(NCc3cccc(-c4cc5ccccc5[nH]4)c3)nc(N3CCC(N)CC3)nc12 [Compound 118]
100 to 1000	CC(C)c1cnn2c(NCc3ccccc3-c3cc4cc([N+](=O)[O-])ccc4[nH]3)nc(N3CCC(N)CC3)nc12 [Compound 121]
100 to 1000	CC(C)c1cnn2c(NCc3ccccc3-n3cc4cccc(NC(=O)CCCN(C)C)c4n3)nc(N3CCC(N)CC3)nc12 [Compound 126]
100 to 1000	CC(=O)c1ccc2nn(-c3ccccc3CNc3nc(N4CCC(N)CC4)nc4c(C(C)C)cnn34)cc2c1 [Compound 127]
